Experimental data: patent US20250049753A1, “METHODS AND COMPOSITIONS FOR DELIVERING MYCOPHENOLIC ACID ACTIVE AGENTS TO NON-HUMAN MAMMALS” (Okava Pharmaceuticals, Inc., priority 2017, published 2025)
Where “and” joins values, the source holds several entries; their conditions need not be identical. Equal values may be shown once.

Test: Study 1: single-dose cross-over PK, oral vs intracolonic Na.MPA
Type: in vivo, male beagle dogs
Conditions: for dose-normalized AUClast MPA: fasted, average
Description: Two single dose cross-over studies were conducted using a canine model (male beagle dogs) to evaluate the potential of an enteric coated-extended release sodium mycophenolate formulation (“EC-ER-Na.MP”). In a first cross-over study, the pharmacokinetics of MPA and its metabolites (MPAG and AcMPAG) following oral dosing of 180 mg of EC-Na.MPA was compared with intracolonic (IC) administration of Na.MPA. In a second cross-over study, 270 mg of an EC-ER-Na.MPA formulation was administered in the both fed and fasted states and pharmacokinetics were compared with oral administration of 10 mg/kg MMF in the fasted state. Both studies were conducted by Absorption Systems (San Diego, CA).
Study 1: For three days prior to IC dosing, dogs (n=5) were offered a soft diet consisting of canned wet food (Pedigree® Choice Cuts). Otherwise, the dogs were offered their standard diet (LabDiet 5006 laboratory canine diet). Prior to each dosing event, the dogs were fasted for 12 hours prior to dosing until 4 hours post-dose, when food was returned. Animals had free access to water throughout the study. Prior to IC dosing, each dog was given a non-stimulant enema approximately 1 hour prior to dosing to remove feces from the colon. Prior to PO dosing, each dog (n=5) was pre-treated with an intramuscular dose of pentagastrin (6 μg/kg) approximately 30 minutes prior to dosing. Capsules were administered by placement in the back of the throat followed by a 10 mL flush with water.
Each dog received a total dose of 180 mg of MPA for each dose. For IC dosing, MPA was delivered as a solution via an endoscope, and for PO dosing each dog received a single Myfortic® 180 mg enteric coated capsule. Following administration, blood samples were collected up to 24 hours post-dose. Plasma concentrations of MPA, MPAG, and AcMPAG were determined with a qualified LC-MS/MS method, and pharmacokinetic parameters were determined with WinNonlin v.6.4 software.

For `COc1c(C)c2c(c(O)c1C/C=C(\C)CCC(=O)O)C(=O)OC2` [MPA, Mycophenolic acid], the “dose-normalized AUClast MPA” value (IC 180 mg/dog) was 1817 ± 925 kg·ng·h/mL/mg and 1817 kg·ng·h/mL/mg, the “dose-normalized AUClast MPA” value (PO 180 mg/dog) was 2234 ± 799 kg·ng·h/mL/mg and 2234 kg·ng·h/mL/mg and the “systemic exposure to MPA following IC and PO dosing” value (based on average values) was “similar”. The “rate of MPA absorption, IC in comparison to PO dose” value (dog, in vivo, po) was “more rapidly absorbed following IC dosing”.
